The supplement of paper PMC11208160

assay: recombinant UMI read abundance after kanamycin selection (control-corrected) (log10(CPM+1)); higher = more efficient recombination; extreme values may be limits of the assay; sequences stand for … in AGTGCAGAGAAAATCGGCCAGTTTTCTCTGCCTGCAGTCCGCATGCCGTGGGACCCCTTGGGTTCTAACCTGTTGCCTAGATTTATGCAGCGGACTGCCTTTCTCCCAAAGTGATAAACCGG…AGGTTGGTTTCACT; site = the 11-nt donor
Experimental: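 Pooled E. coli donor-specificity screen for the IS621 bridge recombinase. Each library member carries a reprogrammed 11-nt donor and a full-length LE bridge RNA expressed in cis from the natural promoter, with a paired donor-binding loop (8-nt LDG + 4-nt RDG) and a target-binding loop fixed to T5. It is co-electroporated with a T5 target plasmid; recombinase is induced with 0.07 mM IPTG and recombinants are selected on kanamycin. UMIs are counted as CPM, averaged over two biological replicates and corrected by the unselected control. Molecule = full bridge RNA written as DNA, built from the T5 scaffold: LDG = donor specificity nt 1-8, RDG = reverse complement of nt 8-11.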
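Further: IS621 bridge recombinase in Escherichia coli cells against a fixed T5 target plasmid.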

Going from “AAGAAGCCATGGACCGGTTTTCCCGGTAATCCGTATTTGCA (site AAGAAGCCTTG)” to “AAGAAGCCATGGACCGGTTTTCCCGGTAATCCGTATTTGCA (site AGGAAGACTTG)”, the “recombinant UMI read abundance (log10)” value falls from 1.32 to 0.00613.

First: AAGACGACATGGACCGGTTTTCCCGGTAATCCGTATTTGGA (site AAGACGACTTC)
Second: AAGCACCCATGGACCGGTTTTCCCGGTAATCCGTATTTGGG (site AAGCACACTCC)
The “recombinant UMI read abundance (log10)” value of the first is higher: 0.804 for the first, 0.0118 for the second.

“AAGCACCCATGGACCGGTTTTCCCGGTAATCCGTATTTGGG (site AAGCACCCTCC)” and “AAGCACCCATGGACCGGTTTTCCCGGTAATCCGTATTTGGG (site AAGCACGCTCC)” are within 0.2 log units of each other in “recombinant UMI read abundance (log10)” value: 0.0505 for the first, 0.00747 for the second.

Compared with “AAGCACCCATGGACCGGTTTTCCCGGTAATCCGTATTTGGG (site AAGCACTCTCC)”, “AAGCAGACATGGACCGGTTTTCCCGGTAATCCGTATTTGGA (site AAGCAGACTTC)” is higher in “recombinant UMI read abundance (log10)” value: 0.371 for the first, 1.25 for the second.

First: AAGCAGTCATGGACCGGTTTTCCCGGTAATCCGTATTTGAC (site AAGCAGTCTGT)
Second: AAGCATGCATGGACCGGTTTTCCCGGTAATCCGTATTTGGG (site AAGCAAGCTCC)
The “recombinant UMI read abundance (log10)” value of the first is higher: 2.88 for the first, 0.0205 for the second.

“AAGCATGCATGGACCGGTTTTCCCGGTAATCCGTATTTGGG (site AAGCACGCTCC)” and “AAGCATGCATGGACCGGTTTTCCCGGTAATCCGTATTTGGG (site AAGCAGGCTCC)” are within 0.2 log units of each other in “recombinant UMI read abundance (log10)” value: 0.00447 for the first, 0.0127 for the second.

Going from “AAGCATGCATGGACCGGTTTTCCCGGTAATCCGTATTTGGG (site AAGCATGCTCC)” to “AAGCCGCCATGGACCGGTTTTCCCGGTAATCCGTATTTGGC (site AAGCCGCCTGC)”, the “recombinant UMI read abundance (log10)” value falls from 0.297 to 0.

Going from “AAGCCTTCATGGACCGGTTTTCCCGGTAATCCGTATTTGGT (site AAGCCTTCTAC)” to “AAGCCTTCATGGACCGGTTTTCCCGGTAATCCGTATTTGGT (site CAGCCTTCTAC)”, the “recombinant UMI read abundance (log10)” value falls from 0.585 to 0.357.

“AAGCCTTCATGGACCGGTTTTCCCGGTAATCCGTATTTGGT (site GAGCCTTCTAC)” and “AAGCCTTCATGGACCGGTTTTCCCGGTAATCCGTATTTGGT (site TAGCCTTCTAC)” are within 0.2 log units of each other in “recombinant UMI read abundance (log10)” value: 0.134 for the first, 0.12 for the second.

First: AAGCGTCCATGGACCGGTTTTCCCGGTAATCCGTATTTGCG (site AAGCGTCCTCG)
Second: AAGCGTTCATGGACCGGTTTTCCCGGTAATCCGTATTTGTT (site AAGCGTTCTAA)
The “recombinant UMI read abundance (log10)” value of the first is lower: 1.06 for the first, 1.52 for the second.

Going from “AAGCTCACATGGACCGGTTTTCCCGGTAATCCGTATTTGAT (site AAGCTCACTAT)” to “AAGCTCACATGGACCGGTTTTCCCGGTAATCCGTATTTGAT (site CAGCTCACTAT)”, the “recombinant UMI read abundance (log10)” value falls from 1.97 to 1.5.

Compared with “AAGCTCACATGGACCGGTTTTCCCGGTAATCCGTATTTGAT (site GAGCTCACTAT)”, “AAGCTCACATGGACCGGTTTTCCCGGTAATCCGTATTTGAT (site TAGCTCACTAT)” is higher in “recombinant UMI read abundance (log10)” value: 0.291 for the first, 1.55 for the second.

First: AAGGACCCATGGACCGGTTTTCCCGGTAATCCGTATTTGAA (site AAGGACCCTTT)
Second: AAGGACGCATGGACCGGTTTTCCCGGTAATCCGTATTTGCC (site AAGGACGCTGG)
The “recombinant UMI read abundance (log10)” value of the first is lower: 1.1 for the first, 2.85 for the second.

Compared with “AAGGAGCCATGGACCGGTTTTCCCGGTAATCCGTATTTGGA (site AAGGAGCCTTC)”, “AAGGCGACATGGACCGGTTTTCCCGGTAATCCGTATTTGCT (site AAGGCGACTAG)” is higher in “recombinant UMI read abundance (log10)” value: 0.02 for the first, 2.18 for the second.

“AAGGGACCATGGACCGGTTTTCCCGGTAATCCGTATTTGGT (site AAGGGACCTAC)” and “AAGGGGCCATGGACCGGTTTTCCCGGTAATCCGTATTTGTG (site AAGGGGCCTCA)” are within 0.2 log units of each other in “recombinant UMI read abundance (log10)” value: 0.00499 for the first, 0.00547 for the second.

“AAGGGTCCATGGACCGGTTTTCCCGGTAATCCGTATTTGAG (site AAGGGTCCTCT)” and “AAGGTGCCATGGACCGGTTTTCCCGGTAATCCGTATTTGAT (site AAGGTGCCTAT)” are within 0.2 log units of each other in “recombinant UMI read abundance (log10)” value: 0.405 for the first, 0.438 for the second.

Compared with “AAGTAAGCATGGACCGGTTTTCCCGGTAATCCGTATTTGGA (site AAGTAAGCTTC)”, “AAGTATGCATGGACCGGTTTTCCCGGTAATCCGTATTTGGA (site AAATATGCTTC)” is lower in “recombinant UMI read abundance (log10)” value: 1.78 for the first, 0.814 for the second.

First: AAGTATGCATGGACCGGTTTTCCCGGTAATCCGTATTTGGA (site AACTATGCTTC)
Second: AAGTATGCATGGACCGGTTTTCCCGGTAATCCGTATTTGGA (site AAGTATGCTTC)
The “recombinant UMI read abundance (log10)” value of the first is lower: 1.43 for the first, 1.96 for the second.

Going from “AAGTATGCATGGACCGGTTTTCCCGGTAATCCGTATTTGGA (site AATTATGCTTC)” to “AAGTCAACATGGACCGGTTTTCCCGGTAATCCGTATTTGTG (site AAGTCAACTCA)”, the “recombinant UMI read abundance (log10)” value falls from 1.04 to 0.011.

“AAGTCCACATGGACCGGTTTTCCCGGTAATCCGTATTTGCC (site AAGTCCACTGG)” and “AAGTCCGCATGGACCGGTTTTCCCGGTAATCCGTATTTGAT (site AAGTCCGCTAT)” are within 0.2 log units of each other in “recombinant UMI read abundance (log10)” value: 1.61 for the first, 1.53 for the second.

“AAGTCGACATGGACCGGTTTTCCCGGTAATCCGTATTTGGG (site AAGTCGACTCC)” and “AAGTCGACATGGACCGGTTTTCCCGGTAATCCGTATTTGGG (site CAGTCGACTCC)” are within 0.2 log units of each other in “recombinant UMI read abundance (log10)” value: 0.0303 for the first, 0.0471 for the second.

“AAGTCGACATGGACCGGTTTTCCCGGTAATCCGTATTTGGG (site GAGTCGACTCC)” and “AAGTCGACATGGACCGGTTTTCCCGGTAATCCGTATTTGGG (site TAGTCGACTCC)” are within 0.2 log units of each other in “recombinant UMI read abundance (log10)” value: 0.0282 for the first, 0.0179 for the second.

First: AAGTCTACATGGACCGGTTTTCCCGGTAATCCGTATTTGTA (site AAGTCTACTTA)
Second: AAGTTCCCATGGACCGGTTTTCCCGGTAATCCGTATTTGTG (site AAGTTCCCTCA)
The “recombinant UMI read abundance (log10)” value of the first is higher: 0.646 for the first, 0.111 for the second.

“AAGTTCCCATGGACCGGTTTTCCCGGTAATCCGTATTTGTG (site ACGTTCCCTCA)” and “AAGTTCCCATGGACCGGTTTTCCCGGTAATCCGTATTTGTG (site AGGTTCCCTCA)” are within 0.2 log units of each other in “recombinant UMI read abundance (log10)” value: 0 for the first, 0.0112 for the second.

Compared with “AAGTTCCCATGGACCGGTTTTCCCGGTAATCCGTATTTGTG (site ATGTTCCCTCA)”, “AAGTTCTCATGGACCGGTTTTCCCGGTAATCCGTATTTGCC (site AAGTTCTCTGG)” is higher in “recombinant UMI read abundance (log10)” value: 0.0155 for the first, 2.31 for the second.

“AAGTTGGCATGGACCGGTTTTCCCGGTAATCCGTATTTGCA (site AAGTTGGCTTG)” and “AAGTTTACATGGACCGGTTTTCCCGGTAATCCGTATTTGAC (site AAGTTTACTGT)” are within 0.2 log units of each other in “recombinant UMI read abundance (log10)” value: 2.05 for the first, 1.97 for the second.
